One assay concerns the target T1, SALL4 (Homo sapiens, UniProt Q96SW2+Q9UJQ4).
T1 construct: expressed in transfected cells; host or cells: GripTite 293 MSR cells (293GT), ThermoFisher Scientific, stably transfected by electroporation, blasticidin-selected clones
As to the kind of experiment: Quantification of SALL4 protein levels in HiBiT tag fusion protein assay. It is filed as cell-based. Conditions: for SALL4 Amax: DMSO-normalized, curve-fitted percentage of SALL4-HiBiT remaining at 50 uM, mean over repeats; for DC50: arithmatic mean over number of repeats, 18 hours, top 50 μM, read-out: SALL4 AC50. The procedure:
The HiBiT system from Promega was used to develop high-throughput and quantitative assays to measure changes in SALL4 protein levels in response to compounds. The HiBiT tag was derived from a split Nanoluciferase and has the following protein sequence: […] (SEQ ID No: 1). The complementary fragment of Nanoluciferase (known as LgBiT, from Promega), was added to the HiBiT tag to form an active Nanoluciferase enzyme whose activity can be precisely measured. In this way, the levels of a fusion protein with the HiBiT tag can be quantified in cell lysates.
DNA constructs, based on the Invitrogen pLenti6.2/V5 DEST backbone, were constructed with the HiBiT tag upstream of SALL4 and expressed the fusion protein from a CMV promotor.
To ensure moderate and consistent expression of the HiBiT-SALL4 fusion protein across all cells in the population, stable cell lines were derived from clones. GripTite 293 MSR cells (293GT) from ThermoFisher Scientific (Catalog number: CRL-R79507), were stably transfected with prepared constructs via electroporation. Following recovery, cells were selected by 10 ug/mL blasticidin in culture media.
The levels of HiBiT-SALL4 tagged fusion proteins in compound-treated cell lines were measured as follows:
On day 1, cells were diluted to 1.0×10^6 cells/ml in normal growth medium. 20 μL of cell suspension were plated in each well of a solid white 384-well plate. Plates were incubated overnight in a 37° C. and 5% CO2 humidified tissue culture incubator.
On day 2, serial dilutions of compounds were made in 384-well plates. Compound plates were set up with DMSO in columns 1, 2, 23, 24, and 10-point compound dilution series in column 3-12 and column 13-22. 10 mM stock solution of compound were placed into column 3 or 13 and a 1:5 serial dilution was carried out until there was a 10-point dilution series per compound. 100 nL of diluted compounds were transferred into the plated cells by Echo® (Labcyte) acoustic transfer. The highest concentration of compound was 50 μM. Plates were incubated overnight (18 hours) in a 37° C. and 5% CO2 humidified tissue culture incubator.
On day 3, plates were removed from the incubator and allowed to equilibrate at room temperature for 60 minutes. HiBiT substrate (Nano-Glo® HiBit Lytic Detection System, Promega Catalogue number: N3050) was added as described by the manufacturers protocols. Plates were incubated at room temperature for 30 minutes and luminescence was read using an EnVision® reader (PerkinElmer®). Data was analyzed and visualized using the Spotfire® software package.
SALL4 Amax reflects the DMSO-normalized, curve-fitted percentage of SALL4-HiBiT remaining at 50 uM. It was calculated by normalizing DMSO controls to 100%, parametric curve fitting of the dose response data (10-point, 5-fold), followed by calculation of response at 50 uM using the fitted equation.
This assay produced a range of SALL4 AC50 and Amax values over several repeat runs due to normal variations in the assay. For a comparison to the compounds described in PCT/IB2020/062070, the arithmatic mean values are reported over the number of repeats specified. […] The compounds of the present disclosure are therefore expected to have improved toxicological properties (Matyskiela, M. E., Couto, S., Zheng, X. et al. SALL4 mediates teratogenicity as a thalidomide-dependent cereblon substrate. Nat Chem Biol 14, 981-987 (2018); Donovan, K. A. et al. Thalidomide promotes degradation of SALL4, a transcription factor Implicated in Duane Radial Ray syndrome. eLife 2018; 7:e38430).

A further assay addresses T2, WIZ (Homo sapiens, UniProt O95785+Q96SW2).
T2 construct: expressed in transfected cells
The experiment in a line: Quantification of WIZ protein levels in HiBit tag fusion protein assay (293T cells). The arrangement: Dmax: dose or concentration left out as unconfirmed. The following applies: for remaining activity at 25 µM / Dmax at 25 µM / Dmax: HEK-293T; for remaining activity at 25 µM: read-out: WIZ Amax; for Dmax at 25 µM: 100 − Amax; for Dmax at 25 µM / Dmax: read-out: % degradation of WIZ (100 − Amax); for DC50: read-out: WIZ AC50. It is filed as cell-based. The essentials:
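293T cells stably carrying a single-copy HiBit-WIZ fusion were exposed to compounds for about 18 hours at 37° C., top concentration 25 μM, 10-point 5-fold series. Lysates were complemented with LgBit and luminescence was read. Amax is the DMSO-normalized, curve-fitted percentage of WIZ-HiBit remaining at 25 uM.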
(In general: With HiBiT, luminescence reflects the tagged protein that the partner subunit can reach.)

Where [1] appears, read: DMSO-normalized, curve-fitted percentage of WIZ-HiBit remaining at 25 uM.
Where [2] appears, read: WIZ HiBit assay in 293T cells, about 18 hours, 10-point 5-fold dilution, top 25 μM.

The results in this text go back to patent US12103919B2, “3-(5-oxy)-1-oxoisoindolin-2-yl)piperidine-2,6-dione derivatives and uses thereof” (NOVARTIS AG, priority 2021, dated 2024).

Where two headings read alike, the source gives them in different places. Some results are limits rather than exact numbers.

T1 sequence (Q9UJQ4 whole entry): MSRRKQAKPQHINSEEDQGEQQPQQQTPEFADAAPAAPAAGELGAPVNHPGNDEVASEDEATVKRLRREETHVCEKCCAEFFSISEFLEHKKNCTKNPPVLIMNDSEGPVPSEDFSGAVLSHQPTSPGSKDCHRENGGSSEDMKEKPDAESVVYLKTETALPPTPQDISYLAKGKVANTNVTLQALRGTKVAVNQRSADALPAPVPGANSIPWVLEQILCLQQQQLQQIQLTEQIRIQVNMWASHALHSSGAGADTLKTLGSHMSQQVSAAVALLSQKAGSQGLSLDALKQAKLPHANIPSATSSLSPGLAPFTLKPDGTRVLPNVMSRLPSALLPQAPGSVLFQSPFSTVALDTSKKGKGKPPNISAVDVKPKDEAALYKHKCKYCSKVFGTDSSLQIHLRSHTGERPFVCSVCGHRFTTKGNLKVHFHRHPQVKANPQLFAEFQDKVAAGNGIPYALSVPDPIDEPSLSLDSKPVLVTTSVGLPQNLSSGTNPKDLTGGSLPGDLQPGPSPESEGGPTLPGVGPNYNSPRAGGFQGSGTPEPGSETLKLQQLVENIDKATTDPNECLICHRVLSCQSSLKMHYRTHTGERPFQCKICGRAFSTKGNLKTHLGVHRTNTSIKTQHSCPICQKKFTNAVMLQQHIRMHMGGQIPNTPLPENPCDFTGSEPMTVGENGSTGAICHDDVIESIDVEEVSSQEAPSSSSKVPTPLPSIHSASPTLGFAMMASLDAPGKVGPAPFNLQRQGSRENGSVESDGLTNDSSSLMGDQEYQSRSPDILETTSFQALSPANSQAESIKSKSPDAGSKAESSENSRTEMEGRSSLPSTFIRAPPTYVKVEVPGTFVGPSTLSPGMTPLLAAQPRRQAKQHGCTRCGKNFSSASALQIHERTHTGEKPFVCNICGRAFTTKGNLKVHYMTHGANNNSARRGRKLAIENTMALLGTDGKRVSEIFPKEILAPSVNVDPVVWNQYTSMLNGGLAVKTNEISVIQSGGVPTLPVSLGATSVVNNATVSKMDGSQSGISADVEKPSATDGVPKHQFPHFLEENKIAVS
T1 sequence (Q96SW2 whole entry): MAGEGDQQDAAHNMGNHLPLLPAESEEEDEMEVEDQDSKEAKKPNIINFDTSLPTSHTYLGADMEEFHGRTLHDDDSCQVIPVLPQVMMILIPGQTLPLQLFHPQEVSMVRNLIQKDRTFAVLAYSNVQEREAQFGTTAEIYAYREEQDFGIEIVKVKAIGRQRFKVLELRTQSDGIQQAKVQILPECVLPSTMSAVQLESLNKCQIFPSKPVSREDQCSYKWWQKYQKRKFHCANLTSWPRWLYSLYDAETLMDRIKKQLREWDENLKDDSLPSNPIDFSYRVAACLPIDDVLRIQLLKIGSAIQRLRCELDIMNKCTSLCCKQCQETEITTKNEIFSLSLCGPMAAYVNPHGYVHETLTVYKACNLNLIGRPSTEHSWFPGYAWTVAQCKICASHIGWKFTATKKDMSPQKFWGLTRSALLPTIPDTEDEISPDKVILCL
T1 sequence (Q16531 whole entry partner): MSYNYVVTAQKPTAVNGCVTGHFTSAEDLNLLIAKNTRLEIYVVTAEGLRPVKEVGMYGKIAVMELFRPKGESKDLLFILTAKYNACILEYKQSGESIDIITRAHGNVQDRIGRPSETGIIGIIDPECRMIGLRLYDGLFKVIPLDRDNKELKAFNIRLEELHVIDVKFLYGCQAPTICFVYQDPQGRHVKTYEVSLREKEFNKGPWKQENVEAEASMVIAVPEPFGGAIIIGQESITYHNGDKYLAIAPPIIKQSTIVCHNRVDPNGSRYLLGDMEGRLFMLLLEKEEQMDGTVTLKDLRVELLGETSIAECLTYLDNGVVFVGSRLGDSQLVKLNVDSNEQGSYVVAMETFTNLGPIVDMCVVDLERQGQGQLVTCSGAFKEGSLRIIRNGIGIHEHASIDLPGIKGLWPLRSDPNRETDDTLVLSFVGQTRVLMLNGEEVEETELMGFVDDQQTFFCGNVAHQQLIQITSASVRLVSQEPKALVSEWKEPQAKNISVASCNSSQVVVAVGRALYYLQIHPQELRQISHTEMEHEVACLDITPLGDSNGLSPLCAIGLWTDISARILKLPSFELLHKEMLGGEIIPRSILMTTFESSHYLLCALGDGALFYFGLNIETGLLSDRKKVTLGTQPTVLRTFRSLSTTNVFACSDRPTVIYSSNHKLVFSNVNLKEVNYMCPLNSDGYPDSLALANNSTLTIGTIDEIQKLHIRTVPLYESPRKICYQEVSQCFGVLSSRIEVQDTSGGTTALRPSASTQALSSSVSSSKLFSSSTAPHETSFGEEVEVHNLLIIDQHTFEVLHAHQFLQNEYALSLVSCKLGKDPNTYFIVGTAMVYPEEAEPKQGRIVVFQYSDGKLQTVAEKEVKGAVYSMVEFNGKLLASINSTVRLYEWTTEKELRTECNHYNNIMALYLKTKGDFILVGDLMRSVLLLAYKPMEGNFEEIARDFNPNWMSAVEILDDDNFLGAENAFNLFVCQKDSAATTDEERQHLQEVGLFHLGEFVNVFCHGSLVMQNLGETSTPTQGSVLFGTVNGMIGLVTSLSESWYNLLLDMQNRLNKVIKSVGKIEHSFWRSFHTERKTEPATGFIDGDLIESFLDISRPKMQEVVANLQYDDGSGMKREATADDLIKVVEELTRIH
T2 sequence (O95785 whole entry): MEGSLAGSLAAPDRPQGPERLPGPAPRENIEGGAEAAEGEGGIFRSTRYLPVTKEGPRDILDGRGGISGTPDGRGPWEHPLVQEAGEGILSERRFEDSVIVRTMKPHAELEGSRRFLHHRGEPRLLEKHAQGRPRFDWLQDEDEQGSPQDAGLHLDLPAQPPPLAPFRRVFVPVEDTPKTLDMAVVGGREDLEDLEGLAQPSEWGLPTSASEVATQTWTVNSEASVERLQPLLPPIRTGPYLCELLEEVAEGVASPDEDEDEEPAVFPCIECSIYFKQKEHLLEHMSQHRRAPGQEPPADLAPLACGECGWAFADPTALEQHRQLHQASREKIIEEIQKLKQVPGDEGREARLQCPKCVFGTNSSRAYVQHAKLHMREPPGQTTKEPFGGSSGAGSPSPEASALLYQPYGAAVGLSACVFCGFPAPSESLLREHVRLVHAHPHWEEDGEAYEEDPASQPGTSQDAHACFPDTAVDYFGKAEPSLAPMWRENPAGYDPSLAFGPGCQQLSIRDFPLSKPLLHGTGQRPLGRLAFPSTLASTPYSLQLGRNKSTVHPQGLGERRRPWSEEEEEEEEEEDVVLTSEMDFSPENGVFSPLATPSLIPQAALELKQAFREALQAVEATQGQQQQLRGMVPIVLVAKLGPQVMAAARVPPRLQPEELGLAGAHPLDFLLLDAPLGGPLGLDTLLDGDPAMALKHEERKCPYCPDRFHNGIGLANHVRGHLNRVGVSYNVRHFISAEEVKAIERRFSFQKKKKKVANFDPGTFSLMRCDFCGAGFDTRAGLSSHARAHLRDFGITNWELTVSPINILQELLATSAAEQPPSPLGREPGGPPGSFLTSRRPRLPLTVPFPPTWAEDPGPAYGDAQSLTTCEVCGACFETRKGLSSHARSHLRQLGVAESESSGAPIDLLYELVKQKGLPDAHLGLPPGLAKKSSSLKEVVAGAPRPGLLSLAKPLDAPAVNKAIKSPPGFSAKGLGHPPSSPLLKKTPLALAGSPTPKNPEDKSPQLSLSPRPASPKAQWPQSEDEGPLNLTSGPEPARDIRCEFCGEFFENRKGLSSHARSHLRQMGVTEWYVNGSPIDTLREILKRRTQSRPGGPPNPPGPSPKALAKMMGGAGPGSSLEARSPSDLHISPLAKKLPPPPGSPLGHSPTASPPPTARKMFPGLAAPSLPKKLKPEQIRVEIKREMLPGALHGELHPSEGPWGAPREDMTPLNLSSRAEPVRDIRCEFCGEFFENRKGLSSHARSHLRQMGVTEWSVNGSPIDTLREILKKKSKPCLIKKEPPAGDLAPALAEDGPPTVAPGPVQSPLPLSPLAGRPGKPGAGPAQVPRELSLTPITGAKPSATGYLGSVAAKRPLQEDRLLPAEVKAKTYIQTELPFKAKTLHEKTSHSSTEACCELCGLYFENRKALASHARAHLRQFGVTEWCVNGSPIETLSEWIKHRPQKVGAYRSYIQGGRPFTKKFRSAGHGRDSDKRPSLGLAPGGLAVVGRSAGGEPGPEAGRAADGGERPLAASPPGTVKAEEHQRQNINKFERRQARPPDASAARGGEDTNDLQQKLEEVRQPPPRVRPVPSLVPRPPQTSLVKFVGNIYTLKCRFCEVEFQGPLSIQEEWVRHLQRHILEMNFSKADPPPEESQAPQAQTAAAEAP
T2 sequence (Q96SW2 whole entry): as the sequence (Q96SW2 whole entry) above
T2 sequence (Q16531 whole entry partner): as the sequence (Q16531 whole entry partner) above

For `O=C1CCC(N2Cc3cc(OC[C@H]4CCCCN4CC4CC4)ccc3C2=O)C(=O)N1` (stereo partly drawn) [Comparative Example 3, 3-(5-(((R)-1-(cyclopropylmethyl)piperidin-2-yl)methoxy)-1-oxoisoindolin-2-yl)piperidine-2,6-dione, reference compound], on SALL4, the “SALL4 Amax” value is reported as 52.88% and the DC50 stood at 0.13 µM.
Turning to `O=C1CCC(N2Cc3cc(O[C@@H]4CCCN(CC5CC5)C4)ccc3C2=O)C(=O)N1` (stereo partly drawn) [Example 13, 3-(5-(((R)-1-(cyclopropylmethyl)piperidin-3-yl)oxy)-1-oxoisoindolin-2-yl)piperidine-2,6-dione], on SALL4, the “SALL4 Amax” value was 70.82%. Further, the DC50 is 0.14 µM at SALL4; 0.014 µM on WIZ (setting [2]); 0.021 µM at WIZ (updated arithmatic mean over the number of repeats specified, assay of Example 89). On WIZ (setting [1]), the remaining activity at 25 µM was found to be 27.6%. Besides, the Dmax at 25 µM on WIZ came out at 72.4%.
Consider `C[C@H]1CC[C@@H](Oc2ccc3c(c2)CN(C2CCC(=O)NC2=O)C3=O)CN1C1CCC1` (stereo partly drawn) [Example 82, 3-(5-(((3R,6S)-1-cyclobutyl-6-methylpiperidin-3-yl)oxy)-1-oxoisoindolin-2-yl)piperidine-2,6-dione], for which, at WIZ, the Dmax was 85% and the remaining activity at 25 µM came to 15%. Moreover, the DC50 on WIZ (setting [2]) is 0.0005 µM.
For the compound `CCOC(=O)N1C[C@H](Oc2ccc3c(c2)CN(C2CCC(=O)NC2=O)C3=O)CC[C@@H]1C` (stereo partly drawn) [Example 83, ethyl (2S,5R)-5-((2-(2,6-dioxopiperidin-3-yl)-1-oxoisoindolin-5-yl)oxy)-2-methylpiperidine-1-carboxylate], the remaining activity at 25 µM at WIZ (setting [1]) turned out to be 96.8%. For the same compound, the Dmax at 25 µM at WIZ came to 3.24%. Further, at WIZ (setting [2]), the DC50 was greater than 25 µM.
With `CNC(=O)N1C[C@H](Oc2ccc3c(c2)CN(C2CCC(=O)NC2=O)C3=O)CC[C@@H]1C` (stereo partly drawn) [Example 84, (2S,5R)-5-((2-(2,6-dioxopiperidin-3-yl)-1-oxoisoindolin-5-yl)oxy)-N,2-dimethylpiperidine-1-carboxamide], on WIZ (setting [1]), the remaining activity at 25 µM was determined as 81.7%. Further, on WIZ, the Dmax at 25 µM came out at 18.3%. On WIZ (setting [2]), the DC50 amounted to 1.17 µM.
The matching figures for `C[C@H]1CC[C@@H](Oc2ccc3c(c2)CN(C2CCC(=O)NC2=O)C3=O)CN1S(C)(=O)=O` (stereo partly drawn) [Example 85, 3-(5-(((3R,6S)-6-methyl-1-(methylsulfonyl)piperidin-3-yl)oxy)-1-oxoisoindolin-2-yl)piperidine-2,6-dione]: 65.7%, 34.3% and 0.0672 µM.
The matching figures for `CC(=O)N1C[C@H](Oc2ccc3c(c2)CN(C2CCC(=O)NC2=O)C3=O)CC[C@@H]1C` (stereo partly drawn) [Example 86, 3-(5-(((3R,6S)-1-acetyl-6-methylpiperidin-3-yl)oxy)-1-oxoisoindolin-2-yl)piperidine-2,6-dione]: 76%, 24% and greater than 25 µM.
For `CCC[C@H]1CC[C@@H](Oc2ccc3c(c2)CN(C2CCC(=O)NC2=O)C3=O)CN1` (stereo partly drawn) [Example 87-1, 3-(1-oxo-5-(((3R,6S)-6-propylpiperidin-3-yl)oxy)isoindolin-2-yl)piperidine-2,6-dione], at WIZ, the Dmax stood at 71.4% and the remaining activity at 25 µM worked out at 28.6%. The DC50 on WIZ (setting [2]) was 0.0359 µM.
For `CCC[C@H]1CC[C@@H](Oc2ccc3c(c2)CN(C2CCC(=O)NC2=O)C3=O)CN1CC` (stereo partly drawn) [Example 87-2, 3-(5-(((3R,6S)-1-ethyl-6-propylpiperidin-3-yl)oxy)-1-oxoisoindolin-2-yl)piperidine-2,6-dione] the same measures were 89.7%, 10.3% and 0.0006 µM.
For `CC1(C)CCC(Oc2ccc3c(c2)CN(C2CCC(=O)NC2=O)C3=O)CN1` (centres unmarked) [Example 88-1, 3-(5-((6,6-dimethylpiperidin-3-yl)oxy)-1-oxoisoindolin-2-yl)piperidine-2,6-dione] the same measures were 50%, 50% and 0.135 µM.
The matching figures for `CCN1CC(Oc2ccc3c(c2)CN(C2CCC(=O)NC2=O)C3=O)CCC1(C)C` (centres unmarked) [Example 88-2, 3-(5-((1-ethyl-6,6-dimethylpiperidin-3-yl)oxy)-1-oxoisoindolin-2-yl)piperidine-2,6-dione]: 79.5%, 20.5% and 0.0007 µM.
